Measurements reported in patent US20020055470A1, “Circumvention of human tumor drug resistance” (CITY OF HOPE, priority 1987, published 2002).
Values joined by “and” are separate entries in the source; they are usually repeats but may differ in a detail not shown here. Equal values may be shown once. Read-outs that look alike come from different tables or passages of the source.

What was measured:
Assay type in all cases: cell-based, human
A2780DDP [1] = experiment: Inhibition of cell growth (cells counted on Coulter Counter after six days)
Protocol: The experiment was conducted in triplicate in the manner described with respect to Table I. […]
(§1) Table VI includes EC50 data further exemplifying the invention. The data reported by Table VI was obtained by substantially the same procedure as that described with respect to Table III. In Table VI, “(C)” indicates continuous exposure, “(1 h)” and “(2 h)” indicate exposure for 1 hour and 2 hours; “HU” indicates hydroxyurea.

A2780S [2] = experiment: as above
Protocol: The experiment was conducted in triplicate in the manner described with respect to Table I.
A2780 cells were well-plated (35 mm disnes) and 24 hours later the cells were treated with cisplatin for one hour, washed out and then treated with 6 concentrations of from 1 μM to 100 μM increased in equal increments of a nucleoside analog in saline. Cells were then washed and incubated for six days. The cells were counted on a Coulter Counter and the experiment was done in triplicate.
as §1

K562-VP16 = experiment: Inhibition of cell growth, Table VI
K562-araC = experiment: Inhibition of cell growth, Table VI; settings: for EC50: K562-araC
Protocol: as §1

K562S = experiment: Inhibition of cell growth, Table VI
Protocol: as §1

HCF-7 DDP = experiment: Inhibition of cell growth, Table VI; settings: for EC50: HCF-7 DDP
Protocol: as §1

HCT8S = experiment: Inhibition of cell growth (cells counted on Coulter Counter after six days)
Protocol: as §1

HCT8DDP = experiment: as above
Protocol: as §1

HCF7S = experiment: Inhibition of cell growth, Table VI
K562-DDP = experiment: Inhibition of cell growth, Table VI; settings: K562-DDP
A2780DDP [3] = experiment: Dual labeled (14C/3H) DNA synthesis and degradation in response to cisplatin; incorporation of labelled nucleoside analogs; settings: cisplatin 20 μM
Source text: A dual labeled (^14C/^3H) experiment was designed to measure simultaneously DNA synthesis and degradation in response to cisplatin.

A2780S [4] = experiment: Dual labeled (14C/3H) DNA synthesis and degradation in response to cisplatin; settings: cisplatin 20 μM
Protocol: A dual labeled (^14C/^3H) experiment was designed to measure simultaneously DNA synthesis and degradation in response to cisplatin. […] A2780S cells respond to cisplatin with a modest degradation (10%) of (^14C) DNA over 3 hrs. In contrast, A2780DDP degradation 40.5% of the (^14C) DNA in 3 hrs. […] Transplatin at equimolar concentrations (20 μM) had no influence on DNA synthesis or degradation in A2780 cells.

[5] = Homo sapiens, A2780 DDP, (C) continuous exposure, read-out: EC50
[6] = Homo sapiens, A2780S, (C) continuous exposure, read-out: EC50
[7] = Homo sapiens, (C) continuous exposure
[8] = Homo sapiens, (C) continuous exposure, read-out: EC50
[9] = Homo sapiens, HCT8-DDP, (C) continuous exposure, read-out: EC50
[10] = A2780 DDP, (C) continuous exposure, read-out: EC50
[11] = A2780S, (C) continuous exposure, read-out: EC50
[12] = (C) continuous exposure, read-out: EC50
[13] = HCT8-DDP, (C) continuous exposure, read-out: EC50

SMILES: Nc1nc2c(ncn2COCCO)c(=O)[nH]1 [Acyclovir]
- EC50 (A2780DDP [1]; [5]): > 300 µM
- EC50 (A2780S [2]; [6]): > 300 µM
- EC50 (K562-VP16; [7]): > 300 µM
- EC50 (K562-araC; [7]): > 300 µM
- EC50 (K562S; [7]): > 300 µM
- EC50 (HCF-7 DDP; [7]): > 300 µM
- EC50 (HCT8S; [8]): > 300 µM
- EC50 (HCT8DDP; [9]): > 300 µM
- EC50 (HCF7S; [7]): > 300 µM
- EC50 (K562-DDP; [7]): > 300 µM

SMILES: N.N.[Cl][Pt][Cl] [Cisplatin, cisplatin]
- Ratio (degree of resistance or cross-resistance) (A2780DDP [1]; A2780DDP vs A2780S EC50, treatment time 1 hr): +12.8
- EC50 (A2780DDP [1]; A2780 DDP, (1h) exposure, read-out: EC50): 90 µM
- fold resistance, cisplatin resistant vs sensitive A2780 cells (A2780DDP [1]; A2780 ovarian carcinoma cells): > 12 fold
- EC50 (A2780DDP [1]; treatment time 1 hr, proliferation during 6 days, mean + SD, read-out: EC50 A2780DDP): 90 µM
- EC50 (A2780S [2]; A2780S, (1h) exposure, read-out: EC50): 7 µM
- EC50 (A2780S [2]; treatment time 1 hr, proliferation during 6 days, mean + SD, read-out: EC50 A2780S): 7 µM
- degradation of (14C) DNA (A2780DDP [3]; A2780DDP, in 3 hrs): 40.5%
- 14C-Tdr/DNA A2780DDP (A2780DDP [3]; treatment time 0 min): 17.78
- 14C-Tdr/DNA A2780DDP (A2780DDP [3]; treatment time 45 min): 14.44
- 14C-Tdr/DNA A2780DDP (A2780DDP [3]; treatment time 90 min): 12.59
- 14C-Tdr/DNA A2780DDP (A2780DDP [3]; treatment time 180 min): 10.57
- EC50 (K562-VP16; (1h) exposure): 15 µM
- EC50 (K562-araC; (1h) exposure): 25 µM
- EC50 (K562S; (1h) exposure): 6 µM
- EC50 (HCF-7 DDP; (1h) exposure): 35 µM
- fold resistance, cispt resistant vs sensitive MCF7 cells (HCF-7 DDP; MCF7 human breast cancer cells): 2.3 fold
- EC50 (HCT8S; (1h) exposure, read-out: EC50): 30 µM
- EC50 (HCT8DDP; HCT8-DDP, (1h) exposure, read-out: EC50): 100 µM
- fold resistance, cispt resistant vs sensitive HCT8 cells (HCT8DDP; HCT8 human colon cancer cells): 2.7 fold
- degradation of (14C) DNA (A2780S [4]; A2780S, over 3 hrs): 10%
- 14C-Tdr/DNA A2780S (A2780S [4]; treatment time 0 min): 6.49
- 14C-Tdr/DNA A2780S (A2780S [4]; treatment time 45 min): 6.21
- 14C-Tdr/DNA A2780S (A2780S [4]; treatment time 90 min): 5.71
- 14C-Tdr/DNA A2780S (A2780S [4]; treatment time 180 min): 6.06
- EC50 (HCF7S; (1h) exposure): 15 µM
- EC50 (K562-DDP; (1h) exposure): 15 µM

SMILES: Nc1ncnc2c1ncn2[C@@H]1O[C@H](CO)C[C@H]1O [Cordicpin]
- EC50 (A2780DDP [1]; [10]): 310 µM
- EC50 (A2780S [2]; [11]): 70 µM
- EC50 (K562-VP16; (C) continuous exposure): 150 µM
- EC50 (K562-araC; (C) continuous exposure): 67 µM
- fold more sensitive, araC resistant vs sensitive K562 cells (K562-araC; K562 human leukemia cells): 2 fold
- EC50 (K562S; (C) continuous exposure): 130 µM
- EC50 (HCT8S; [12]): 110 µM
- EC50 (HCT8DDP; [13]): 95 µM
- EC50 (HCF7S; (C) continuous exposure): 130 µM
- EC50 (K562-DDP; (C) continuous exposure): 160 µM

SMILES: Nc1nc(O)c2ncn(COC(CO)CO)c2n1 [Ganciclovir, ganciclovir]
- fold more sensitive (lower concentration), cisplatin resistant vs sensitive A2780 cells (A2780DDP [1]; A2780DDP vs A2780S): 3-4 fold and 3.3 fold
- EC50 (A2780DDP [1]; [5]): 30 µM
- EC50 (A2780DDP [1]; Homo sapiens, A2780DDP, treated 24 h after plating, counted six days later, mean + SD, read-out: Ganciclovir EC50): 30 µM
- EC50 (A2780S [2]; [6]): 110 µM
- EC50 (A2780S [2]; Homo sapiens, A2780S, treated 24 h after plating, counted six days later, mean + SD, read-out: Ganciclovir EC50): 110 µM
- EC50 (K562-VP16; [7]): 250 µM
- EC50 (K562-araC; [7]): 20 µM
- EC50 (K562S; [7]): 10 µM
- EC50 (HCF-7 DDP; [7]): 50 µM
- fold more sensitive, cispt resistant vs sensitive MCF7 cells (HCF-7 DDP; MCF7 human breast cancer cells): 4 fold
- EC50 (HCT8S; [8]): 60 µM
- EC50 (HCT8S; Homo sapiens, treated 24 h after plating, counted six days later, mean + SD, read-out: Ganciclovir EC50): 60 µM
- fold more sensitive, cispt resistant vs sensitive HCT8 cells (HCT8DDP; HCT8 human colon cancer cells): 1.5 fold
- EC50 (HCT8DDP; [9]): 40 µM
- EC50 (HCT8DDP; Homo sapiens, HCT8DDP, treated 24 h after plating, counted six days later, mean + SD, read-out: Ganciclovir EC50): 40 µM
- EC50 (HCF7S; [7]): 200 µM
- EC50 (K562-DDP; [7]): 295 µM

SMILES: NC(=O)NO [NU, hydroxyurea]
- EC50 (A2780DDP [1]; [10]): 60 µM
- EC50 (A2780S [2]; [11]): 75 µM
- EC50 (K562-VP16; (C) continuous exposure): 40 µM
- EC50 (K562-araC; (C) continuous exposure): 40 µM
- EC50 (K562S; (C) continuous exposure): 40 µM
- EC50 (HCF-7 DDP; (C) continuous exposure): 200 µM
- EC50 (HCT8S; [12]): 100 µM
- EC50 (HCT8DDP; [13]): 100 µM
- EC50 (HCF7S; (C) continuous exposure): 100 µM
- EC50 (K562-DDP; (C) continuous exposure): 140 µM

SMILES: NC(=O)c1ncn([C@@H]2O[C@H](CO)[C@@H](O)[C@H]2O)n1 [Ribovirin]
- EC50 (A2780DDP [1]; [10]): 45 µM
- EC50 (A2780S [2]; [11]): 27 µM
- EC50 (K562-VP16; (C) continuous exposure): 55 µM
- EC50 (K562-araC; (C) continuous exposure): 42 µM
- EC50 (K562S; (C) continuous exposure): 62 µM
- EC50 (HCT8S; [12]): 70 µM
- EC50 (HCT8DDP; [13]): 50 µM
- EC50 (HCF7S; (C) continuous exposure): 100 µM
- EC50 (K562-DDP; (C) continuous exposure): 75 µM
